From ChEMBL document CHEMBL1201862, “PubChem BioAssay data set” (2004)
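Following 48 hours of exposure in 96-well plates, responses at five concentrations were used to interpolate endpoints linearly. The concentration for 50% growth inhibition is given as GI50.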 Activity calls are given as the source filed them. No stated cut-off is given here; in the data, active = GI50 up to about 1.1 µM and inactive = higher.

How the values were obtained:
Test in all cases: NCI anticancer screen, dose series, 48 h
786-0 = test system: 786-0
HL-60 = test system: HL-60
KM12 = test system: KM12
LOX IMVI = test system: LOX IMVI
M14 = test system: M14
MDA-N = test system: MDA-N
NCI-H23 = test system: NCI-H23
OVCAR-3 = test system: OVCAR-3
OVCAR-5 = test system: OVCAR-5
OVCAR-8 = test system: OVCAR-8
SF-268 = test system: SF-268
SF-539 = test system: SF-539
SNB-19 = test system: SNB-19
SNB-75 = test system: SNB-75
T47D = test system: T47D
TK-10 = test system: TK-10
UACC-257 = test system: UACC-257
UACC-62 = test system: UACC-62
BT-549 = test system: BT-549

Measured: GI50

COc1ccc(S(=O)(=O)Nc2ccc(-c3csc(N4C(=O)/C(=C/C=C\c5ccccc5)N=C4c4ccccc4)n3)cc2)cc1Cl
inactive: 786-0 31.3 µM | HL-60 14 µM | KM12 29 µM | LOX IMVI 19.8 µM | M14 27.6 µM | MDA-N 31.3 µM | NCI-H23 18.9 µM | OVCAR-3 26.7 µM | OVCAR-5 38.6 µM | OVCAR-8 23.2 µM | SF-268 19.1 µM | SF-539 36.6 µM | SNB-19 33.7 µM | SNB-75 33.4 µM | T47D 19.5 µM | TK-10 38.5 µM | UACC-257 33 µM | UACC-62 19.4 µM

O=C(O)c1ccc([C@@H]2C(=O)N(O)[C@@H]3C=CC[C@@H]32)cc1
inactive: 786-0 > 100 µM | HL-60 > 100 µM | KM12 > 100 µM | LOX IMVI > 100 µM | M14 > 100 µM | NCI-H23 > 100 µM | OVCAR-3 > 100 µM | OVCAR-8 > 100 µM | SF-268 > 100 µM | SF-539 > 100 µM | SNB-19 > 100 µM | SNB-75 > 100 µM | TK-10 > 100 µM | UACC-257 > 100 µM | UACC-62 > 100 µM

CNC(=O)OCc1c(COC(=O)NC)c(-c2ccc(Cl)c(Cl)c2)n2c1SCC2
inactive: 786-0 16.7 µM | HL-60 7.29 µM | KM12 17.5 µM | LOX IMVI 12.4 µM | M14 18.7 µM | MDA-N 18.5 µM | NCI-H23 21 µM | OVCAR-3 16.7 µM | OVCAR-5 4.06 µM | OVCAR-8 3.85 µM | SF-268 13.3 µM | SF-539 15.5 µM | SNB-19 29.2 µM | SNB-75 8.77 µM | T47D 8.81 µM | TK-10 2.86 µM | UACC-257 10.4 µM | UACC-62 5.74 µM

COc1cc(O)c2c(=O)cc(-c3ccc(O)cc3O)oc2c1CC=C(C)C [ARTOCARPETIN A]
inactive: 786-0 26.6 µM | HL-60 10.4 µM | KM12 6.12 µM | LOX IMVI 11.9 µM | M14 13.8 µM | MDA-N 19.3 µM | NCI-H23 17.6 µM | OVCAR-5 > 100 µM | OVCAR-8 16.9 µM | SF-268 17.4 µM | SF-539 18.1 µM | SNB-19 18.3 µM | SNB-75 20.7 µM | TK-10 27.7 µM | UACC-257 28.4 µM | UACC-62 20 µM

O=c1[nH]n(Cc2ccccc2Cl)c2ccc([N+](=O)[O-])cc12
inactive: 786-0 46.6 µM | HL-60 31.6 µM | KM12 63.5 µM | LOX IMVI > 100 µM | M14 > 100 µM | MDA-N 47 µM | NCI-H23 49.8 µM | OVCAR-3 35.9 µM | OVCAR-5 > 100 µM | OVCAR-8 42.3 µM | SF-268 49.9 µM | SF-539 54.2 µM | SNB-19 80 µM | SNB-75 47.2 µM | TK-10 55.6 µM | UACC-257 > 100 µM | UACC-62 43.4 µM

O=C1NC(=O)[C@@H](OCC2CCCCC2)[C@@H]2OCC3OC(C(O)C3O)C12 (stereo partly drawn)
inactive: 786-0 > 100 µM | HL-60 > 100 µM | KM12 > 100 µM | LOX IMVI > 100 µM | M14 > 100 µM | MDA-N > 100 µM | NCI-H23 > 100 µM | OVCAR-3 > 100 µM | OVCAR-5 > 100 µM | OVCAR-8 > 100 µM | SF-268 > 100 µM | SF-539 > 100 µM | SNB-19 > 100 µM | T47D > 100 µM | TK-10 > 100 µM | UACC-257 > 100 µM | UACC-62 > 100 µM

Cc1cc(C)n(C(C)(C(=O)Cc2ccccc2)n2nc(C)cc2C)n1
inactive: 786-0 > 100 µM | HL-60 > 100 µM | KM12 > 100 µM | LOX IMVI > 100 µM | M14 > 100 µM | MDA-N > 100 µM | NCI-H23 > 100 µM | OVCAR-3 > 100 µM | OVCAR-5 > 100 µM | OVCAR-8 > 100 µM | SF-268 > 100 µM | SF-539 > 100 µM | SNB-19 > 100 µM | T47D > 100 µM | TK-10 > 100 µM | UACC-62 > 100 µM

CC[C@H]1C=CCC[C@@]2(C[C@@H]3CC[C@H]4[C@@H](C(=O)OCCCCCCCCCCCCCCCC(=O)N(CCCN)C[C@@H](O)CCN)[C@@]5(CCC[C@@H](C)O5)NC(=[N+]34)N2)O1
inactive: 786-0 1.88 µM | BT-549 2.01 µM | HL-60 2.14 µM | KM12 1.57 µM | LOX IMVI 1.91 µM | M14 1.91 µM | MDA-N 1.66 µM | NCI-H23 1.78 µM | OVCAR-3 3.91 µM | OVCAR-5 1.63 µM | OVCAR-8 2.36 µM | SF-268 1.93 µM | SF-539 1.4 µM | TK-10 1.58 µM | UACC-257 1.75 µM | UACC-62 1.78 µM
